Experimental data published in patent US20260216294A1, “BETA 2-ADRENERGIC RECEPTOR AGONISTS FOR TREATMENT OR PREVENTION OF MUSCLE WASTING” (ATROGI AB, priority 2023, published 2026).

Assays:
L6-myotubes [1] = assay: Glucose uptake in differentiated L6-myotubes (Biological Example 2); format: cell-based; conditions: for Emax at 10 µM: read-out: Biological example 2 (GU)
Description: (§1) Compounds described in publications referenced and incorporated herein were screened in accordance with the procedures outlined in Biological example 2 and Biological example 3.
Differentiated L6-myotubes were serum-starved overnight in medium containing 0.5% fatty-acid free BSA and stimulated with isoprenaline or the test compound, with a final concentration of 1×10^−5 M. After 1 h 40 min the cells were washed with warm glucose free medium or PBS twice and another portion of agonist was added to the glucose free medium. After 20 min the cells were exposed to 50 nM ^3H-2-deoxyglucose for 10 min before washed with ice cold glucose free medium or PBS three times and lysed with 0.2 M NaOH, 400 μL/well, for 1 h at 60° C. The cell lysate was mixed with 4 mL scintillation buffer (Emulsifier Safe, Perkin Elmer) and the radioactivity was detected in a […] (Tri-Carb 4810TR, Perkin Elmer).

L6-myotubes [2] = assay: Measurement of intracellular cAMP levels in differentiated L6-myotubes (Biological Example 3); format: cell-based; conditions: for Emax at 10 µM: 0.25 h
Description: as §1
Differentiated L6-myotubes were serum-starved overnight and stimulated with isoprenaline or the test compound with a final concentration of 1×10^−5 M, for 15 min in stimulation buffer (HBSS supplemented with 1% BSA, 5 mM HEPES and 1 mM IBMX, pH 7.4). The medium was aspirated and 100 μL of 95% EtOH was added to each well of the 24-well plate and cells were kept at −20° C. overnight. The EtOH was allowed to evaporate and 500 μL of lysis buffer (1% BSA, 5 mM HEPES and 0.3% Tween-20, pH 7.4) was added to each well. The plate was kept at −80° C. for 30 min and then at −20° C. until the day of detection when the samples were thawed. Intracellular cAMP levels were detected using an alpha screen cAMP kit (6760635D from Perkin Elmer).

[3] = glucose uptake in differentiated L6-myotubes, compound at 10 μM, activity relative to isoproterenol at 10 μM
[4] = intracellular cAMP in differentiated L6-myotubes, compound at 10 μM, activity relative to isoproterenol at 10 μM
[5] = glucose uptake, compound at 10 μM relative to isoproterenol at 10 μM
[6] = intracellular cAMP, compound at 10 μM relative to isoproterenol at 10 μM

Row | SMILES | Emax at 10 µM (L6-myotubes [1]; [3]) [%] | Emax at 10 µM (L6-myotubes [2]; [4]) [%] | further results
1 | COC(=O)[C@H]1CC[C@@H](C(C)(C)NC[C@H](O)c2cccc(F)c2)CC1 [Compound 328, (1S,4s)-8-[(R)-2-(m-fluorophenyl)-2-hydroxyethylamino]-7-methoxy-p-menthan-7-one] | > 75 | < 25 | –
2 | CC(C)(C)NC[C@H](O)c1ccc(F)c(O)c1 [Compound 84, (R)-2-(tert-butylamino)-1-(4-fluoro-3-hydroxyphenyl)-1-ethanol] | – | – | Emax at 10 µM (L6-myotubes [1]; [5]): > 75%; Emax at 10 µM (L6-myotubes [2]; [6]): 50 to 75%
3 | COC(=O)[C@H]1CC[C@H](CCC(C)(C)NC[C@H](O)c2cccc(F)c2)CC1 [Compound 350, methyl (1R,4r)-4-{3-[(R)-2-(m-fluorophenyl)-2-hydroxyethylamino]-3-methylbutyl} cyclohexanecarboxylate] | > 75 | < 25 | –
4 | CC(C)(C[C@H]1CC[C@@H](NC(=O)C(C)(C)C)CC1)NC[C@H](O)c1cncc(F)c1 [Compound 455] | 50 to 75 | < 25 | –
5 | CC12CCC([C@H](O)c3ccncc3F)(CC1)N2 [Compound 254, (R)-(3-fluoro-4-pyridyl)(4-methyl-7-azabicyclo[[2.2.1]]hept-1-yl)methanol] | < 25 | < 25 | –
6 | CCC[C@H]1CCCC[C@@H]([C@@H](O)c2cncc(F)c2)N1 [Compound 235, (S)-[(2S,7S)-7-propyl-2-azepanyl](5-fluoro-3-pyridyl)methanol] | < 25 | < 25 | –
7 | O[C@@H](c1cccc(F)c1)C12CCC(CCc3cccnc3)(CC1)N2 [Compound 446, (R)-(m-fluorophenyl){4-[2-(3-pyridyl)ethyl]-7-azabicyclo[[2.2.1]]hept-1-yl}methanol] | – | – | Biological example 2 (GU) (L6-myotubes [1]; [3]): +++ (If a compound at 10 μM shows activity of more than 75% of that of isoproterenol at 10 μM, the activity is denoted with +++); Biological example 3 (CAMP) (L6-myotubes [2]; [4]): ++ (if it is between 75 and 50% it is denoted with ++)
8 | CCCCNCC(O)c1ccc(Cl)c(O)c1 (stereo not drawn) [Compound 34, 2-(butylamino)-1-(4-chloro-3-hydroxyphenyl)-1-ethanol] | – | – | Emax at 10 µM (L6-myotubes [1]; [5]): > 75%; Emax at 10 µM (L6-myotubes [2]; [6]): < 25%
9 | CCC[C@@H]1CCC[C@@H]([C@@H](O)c2cccc(O)c2)N1 [Compound 113] | – | – | Emax at 10 µM (L6-myotubes [1]; [5]): 50 to 75%; Emax at 10 µM (L6-myotubes [2]; [6]): < 25%
10 | O[C@@H](c1cccc(F)c1)[C@H]1CCC2(CC2)N1 [Compound 171] | – | – | Emax at 10 µM (L6-myotubes [1]; [5]): 25 to 50%; Emax at 10 µM (L6-myotubes [2]; [6]): < 25%
11 | CC(=O)N(C)[C@H]1CC[C@@H](CC(C)(C)NC[C@H](O)c2cncc(F)c2)CC1 [Compound 492] | – | – | Biological example 2 (GU) (L6-myotubes [1]; [3]): + (if it is between 50 and 25% it is denoted with +); Biological example 3 (CAMP) (L6-myotubes [2]; [4]): − (if it less than 25% it is denoted with −)
12 | OC(CNCC1CCCCC1)c1ccccc1 (stereo not drawn) [Compound 7, 2-[(cyclohexylmethyl)amino]-1-phenyl-1-ethanol] | – | – | Emax at 10 µM (L6-myotubes [1]; [5]): 25 to 50%; Emax at 10 µM (L6-myotubes [2]; [6]): < 25%
13 | COc1ccc(CC23CCC([C@H](O)c4cccc(F)c4)(CC2)N3)cc1 [Compound 401, (R)-(m-fluorophenyl){4-[(p-methoxyphenyl)methyl]-7-azabicyclo[[2.2.1]]hept-1-yl}methanol] | > 75 | < 25 | –
14 | CCCCNC[C@H](O)c1cccc(F)c1F [Compound 77, (R)-2-(butylamino)-1-(2,3-difluorophenyl)-1-ethanol] | – | – | Emax at 10 µM (L6-myotubes [1]; [5]): > 75%; Emax at 10 µM (L6-myotubes [2]; [6]): < 25%
15 | CNS(=O)(=O)[C@H]1CC[C@H](CC(C)(C)NC[C@H](O)c2cncc(F)c2)CC1 [Compound 478, (R)-2-{1,1-dimethyl-2-[(1r,4R)-4-(methylaminosulfonyl)cyclohexyl]ethylamino}-1-(5-fluoro-3-pyridyl)-1-ethanol] | 25 to 50 | < 25 | –
16 | CO[C@H]1CC[C@H](C[C@H]2CC[C@H]([C@H](O)c3cncc(F)c3)N2)CC1 [Compound 341] | > 75 | < 25 | –
17 | CCC[C@@H]1CCC[C@@H]([C@@H](O)c2cccc(Cl)c2)N1 [Compound 114] | – | – | Emax at 10 µM (L6-myotubes [1]; [5]): 25 to 50%; Emax at 10 µM (L6-myotubes [2]; [6]): < 25%
18 | Cc1ncccc1[C@@H](O)CNC(C)(C)C[C@H]1CC[C@H](NS(C)(=O)=O)CC1 [Compound 435, (R)-2-{1,1-dimethyl-2-[(1r,4R)-4-(mesylamino)cyclohexyl]ethylamino}-1-(2-methyl-3-pyridyl)-1-ethanol] | 25 to 50 | < 25 | –
19 | CC12CC(C1)[C@H]([C@H](O)c1ccccc1F)N2 [Compound 210] | > 75 | > 75 | –
20 | CC(C)(C[C@H]1CC[C@@H](C#N)CC1)NC[C@H](O)c1cccc(F)c1 [Compound 399, (1S,4s)-4-{2-[(R)-2-(m-fluorophenyl)-2-hydroxyethylamino]-2-methylpropyl} cyclohexanecarbonitrile] | > 75 | 25 to 50 | –
21 | CO[C@H]1CC[C@@H](CCC(C)(C)NC[C@H](O)c2cncc(F)c2)CC1 [Compound 266] | > 75 | < 25 | –
22 | O[C@H](c1cccc(F)c1)C12CCC(Cc3ccc(F)cc3)(CC1)N2 [Compound 413, (R)-(m-fluorophenyl){4-[(p-fluorophenyl)methyl]-7-azabicyclo[[2.2.1]]hept-1-yl}methanol] | > 75 | < 25 | –
23 | CC12CCC([C@@H](O)c3cccc(Cl)c3)(CC1)N2 [Compound 196, (S)-(m-chlorophenyl)(4-methyl-7-azabicyclo[[2.2.1]]hept-1-yl)methanol] | – | – | Emax at 10 µM (L6-myotubes [1]; [5]): 25 to 50%; Emax at 10 µM (L6-myotubes [2]; [6]): < 25%
24 | O[C@@H](c1cccc(F)c1)C12CCC(CCc3ccc(OC(F)(F)F)cc3)(CC1)N2 [Compound 544, (S)-(m-fluorophenyl){4-[2-(p-trifluoromethoxyphenyl)ethyl]-7-azabicyclo[[2.2.1]]hept-1-yl}methanol] | < 25 | < 25 | –
25 | CO[C@H]1CC[C@H](CC(C)(C)NC[C@H](O)c2cccc(F)c2)CC1 [Compound 249, (R)-2-{1,1-dimethyl-2-[(1r,4R)-4-methoxycyclohexyl]ethylamino}-1-(m-fluorophenyl)-1-ethanol] | > 75 | < 25 | –
26 | CC(=O)N(C)[C@H]1CC[C@@H](CC(C)(C)NC[C@H](O)c2cncc(F)c2)CC1 [Compound 507] | – | < 25 | Biological example 2 (GU) (L6-myotubes [1]; [3]): ++ (if it is between 75 and 50% it is denoted with ++)
27 | CN(C)S(=O)(=O)[C@H]1CC[C@@H](CC(C)(C)NC[C@H](O)c2cccc(F)c2)CC1 [Compound 470] | > 75 | 25 to 50 | –
28 | CCS(=O)(=O)N[C@H]1CC[C@H](CC(C)(C)NC[C@H](O)c2cncc(F)c2)CC1 [Compound 525, (R)-2-{1,1-dimethyl-2-[(1r,4R)-4-(ethylsulfonylamino)cyclohexyl]ethylamino}-1-(5-fluoro-3-pyridyl)-1-ethanol] | 50 to 75 | < 25 | –
29 | O[C@@H](c1cccc(F)c1)C12CCC(COCc3ccc(Cl)cc3)(CC1)N2 [Compound 395, (S)-(4-{[(p-chlorophenyl)methoxy]methyl}-7-azabicyclo[[2.2.1]]hept-1-yl)(m-fluorophenyl)methanol] | 50 to 75 | < 25 | –
30 | COc1ccc(CCC23CCC([C@H](O)c4cccc(F)c4)(CC2)N3)cc1 [Compound 540, (R)-(m-fluorophenyl){4-[2-(p-methoxyphenyl)ethyl]-7-azabicyclo[[2.2.1]]hept-1-yl}methanol] | 50 to 75 | 25 to 50 | –
